Data set [1] relates to mice with the gene mutation for Huntington's disease (HD). The settings on record: cited from earlier work.
The next data set deals with Huntington's disease. The note with it: patients, cited from earlier work; for slowing of progression of Huntington's disease: large-scale clinical trial.
For data set [2], the system named is Differentiated inducible PC12 cells. In words: L-glutamine add-back to MSO treated PC12 culture. The format is cell-based. On the procedure: The cells are grown overnight and aggregation is calculated. Inhibition of aggregation proceeds in a concentration-dependent manner.
In contrast, the addition of L-GLN has no effect on the growth of cells not treated with MSO or cultures treated with subinhibitory concentrations of MSO.

Data set [3] relates to brain levels of glutamine. The settings on record: MSO administered to normal animals; reduced from 5.6; cited from earlier work.
Data set [4] concerns Differentiated inducible PC12 cells. The note with it: MSO 1-100 μM, low glutamine medium, overnight, fluorescent microscopy counts.
Method: Cells (1×10^6) are plated in 10-cm plates using tissue culture medium low in glutamine to ensure that most of the glutamine in the cells is the product of de novo synthesis by cellular glutamine synthetase. […] MSO is added directly to the cell-culture media at final concentrations of 1-100 μM. The cells are grown overnight and aggregation is calculated. […] Visual counts of aggregates are performed by using fluorescent microscopy.
The subject of data set [5] is Drosophila transgenic polyQ line P{UAS-Q48myc}^42. The settings on record: Q48 flies fed MSO; Q48 flies without MSO need an average of 26 sec.
Method: Flies are mated at 25° C. as described in Nature 413, 739-743. Eggs are collected and transferred into vials at 29° C. containing standard food supplemented with MSO, and adults are transferred to vials containing fresh food every 3 days after eclosion.
A second phenotype associated with expanded polyQ expression is a decrease in motor function. This is assayed by using an “escape” or climbing assay as described in Exp. Gerontol.
Another data set addresses glutamine synthetase (Homo sapiens, UniProt P15104). The note with it: cited from earlier work.
The conditions of data set [6]: in vivo; cited from earlier work.

Sequence of glutamine synthetase (P15104 2-373 limits assumed, species assumed): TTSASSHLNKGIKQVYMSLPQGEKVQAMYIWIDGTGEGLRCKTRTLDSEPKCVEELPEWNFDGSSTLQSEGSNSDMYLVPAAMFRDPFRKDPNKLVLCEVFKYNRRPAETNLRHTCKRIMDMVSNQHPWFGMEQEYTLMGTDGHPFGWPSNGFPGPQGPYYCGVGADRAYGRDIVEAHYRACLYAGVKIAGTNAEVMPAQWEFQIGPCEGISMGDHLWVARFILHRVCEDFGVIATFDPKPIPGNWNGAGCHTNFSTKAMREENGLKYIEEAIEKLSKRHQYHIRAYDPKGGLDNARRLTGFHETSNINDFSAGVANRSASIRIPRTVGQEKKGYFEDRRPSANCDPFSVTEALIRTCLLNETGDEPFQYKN

In the case of `NCCSSCCN` [cystamine], the tremors and survival entry in data set [1] (HD mutation mice) is “alleviate tremors and prolong life”. The “levels of neuroprotective proteins” value in data set [1] (mouse, in vivo) was “increase the levels of certain neuroprotective proteins”.

`CC(Cc1ccccc1)(NC(=O)CN)c1ccccc1` (stereo not shown) [Remacemide]: the “slowing of progression of Huntington's disease” value with Huntington's disease is listed as “neither drug resulted in any significant improvement”.

With `NC(=O)CC[C@H](N)C(=O)O` [L-glutamine], the “toxic protein synthesis and aggregation after addition of L-glutamine” value in data set [2] (MSO treated culture) is “increased toxic protein synthesis and aggregation”. Moreover, in data set [2] (cells not treated with MSO or treated with subinhibitory concentrations of MSO), the “growth of cells after addition of L-GLN” value was “no effect”.

As to `CS(=N)(=O)CC[C@H](N)C(=O)O` (stereo partly drawn) [MSO, L-methionine S-sulfoximine], the “brain levels of glutamine” value in data set [3] was 1.8 mmol/kg brain. Also, the “visible aggregate production (aggregation)” value in data set [4] is on record as “inhibit aggregation”. Further, in data set [5], the “time to climb a defined distance up a vial (motor function)” value is recorded as “require less time to climb the same distance”. Moreover, on glutamine synthetase, the “type of inhibition of glutamine synthetase” value is given as “irreversible inhibitor”.

As to `CP(=O)(O)CCC(N)C(=O)O` [Glufosinate, ammonium-D-L-homoalanine-4-yl(methyl)-phosphinate], the “crossing of the blood brain barrier” value in data set [6] is “does not cross the blood brain barrier”. The “type of inhibition of glutamine synthetase” value at glutamine synthetase is given as “catalytic inhibitor”.

With `COC1=C(OC)C(=O)C(C/C=C(\C)CC/C=C(\C)CC/C=C(\C)CC/C=C(\C)CC/C=C(\C)CC/C=C(\C)CC/C=C(\C)CC/C=C(\C)CC/C=C(\C)CCC=C(C)C)=C(C)C1=O` [Coenzyme Q10], the “slowing of progression of Huntington's disease” value in the data set on Huntington's disease is given as “neither drug resulted in any significant improvement”. Moreover, the “disease progression after one year of treatment” value with Huntington's disease (one year of treatment, overall results inconclusive) is on record as “seemed to progress more slowly”.

The record behind these values is US8048923B2, “Treatment of polyglutamine disorders caused by expanding genomic CAG nucleotides” (Odessa Pharma, priority 2003, dated 2011).
